{"source": "patent US20080050355A1", "about": "“PROTECTION OF BIOACTIVE FOOD INGREDIENTS BY MEANS OF ENCAPSULATION” (COMPAGNIE GERVAIS DANONE, priority 2004, published 2008)", "key": {"pathogenic strains": {"tested_on": "pathogenic strains", "conditions": "In vitro, cited from earlier work"}, "[1]": {"tested_on": "ferment consisting of a mixture of strains 1-2783, 1-2774, 1-2835 and 1-1968", "test": "Fermentation of milk mix containing Lactium up to pH 4.70, residual peptides by HPLC-MS/MS", "type": "physicochemical", "conditions": "1.5 g/L Lactium® added before fermentation", "protocol": "(§1) Protocol: the medium was prepared by hydrating a skimmed milk powder at 120 g/L, to which 1.5 g/L of Lactium® ingredient is added (corresponding to approximately 30 mg/L αs1 [91-100] bioactive peptide) then pasteurised at 95° C. for 8 minutes.\n(§2) The lacetic ferment was added at a percentage of 0.02% and fermentation was conducted at the optimal temperature of the chosen ferment (between 37 and 42° C.) up to a pH of 4.70.\nAnalysis of the residual peptides, in particular of the bioactive peptide αS1[91-100], was conducted using a HPLC method coupled to a detector of MS/MS type as described below: • the sample was prepared by diluting the fermented medium in a mixture of water, methanol and trifluoroacetic acid (50/50/0.1%) to a ratio of approximately 1 to 6. […] The peptides were eluted in conventional manner against an increasing gradient of solvent B (Acetonitrile+0.100% formic acid) in solvent A (Water+0.106% formic acid) for a time of 40 min to 2 hours in relation to desired resolution. • detection was made using a specific detector of MS/MS type, for example of ion trap type such as the Esquire 3000+(Bruker, Daltonique, rue de l'Industrie 67166 Wissembourg Cedex) adjusted either for global analysis of the peptide content (MS-MS mode) or for precise, specific quantification of a peptide from its characteristic fragments. […]"}, "[2]": {"tested_on": "ferment YC380 (Chr. Hansen)", "test": "Fermentation of milk mix containing hydrolysate up to pH 4.7, residual peptides by HPLC-MS/MS", "type": "physicochemical", "protocol": "FIG. 3: Compared peptide profiles (LC-MS/MS chromatograms) of a milk “mix” containing 1.5 g/L DMV C12® hydrolysate before (1) and after (2) fermentation up to pH 4.7 by the lacetic ferment Hansen YC380. Almost all the peptides of the hydrolysate, including the bioactive C12 peptide (fragment αS1[23-34] disappeared after metabolisation by the ferment strains.\nas §1, §2\nAnalysis of the residual peptides, in particular of the bioactive peptide αS1[91-100], was conducted using a HPLC method coupled to a detector of MS/MS type as described below: • the sample was prepared by diluting the fermented medium in a mixture of water, methanol and trifluoroacetic acid (50/50/0.1%) to a ratio of approximately 1 to 6. […] For example the αS1[91-100] peptide was isolated from its mass (double charged ion of mass 634.5 Da) and quantified from the intensity of its characteristic daughter ions after fragmenting (ions with m/z 991.5 Da, 771.5 Da and 658.3 Da). […]"}, "[3]": {"tested_on": "Pure strains (Lactobacillus)", "test": "Fermentation of reconstituted milk with 1.5 g/L Lactium by pure strains", "type": "physicochemical", "conditions": "milk mix containing 1.5 g/L Lactium®, fermentation halted at pH 4.7", "protocol": "(§3) Analysis of the residual peptides, in particular of the bioactive peptide αS1[91-100], was conducted using a HPLC method coupled to a detector of MS/MS type as described below: • the sample was prepared by diluting the fermented medium in a mixture of water, methanol and trifluoroacetic acid (50/50/0.1%) to a ratio of approximately 1 to 6. The supernatant after centrifuging formed the sample representing the peptide content of the fermented medium. • this sample was injected into a HPLC chromatography system of Agilent 1100 type (Agilent Technologies France, 1 rue Galvani 91745 Massy Cedex France) equipped with a column adapted for peptide analysis of Waters Symetry® type (5 μm 2.1×150 mm, WAT056975, Waters, France, 5 Rue Jacques Monod, 78280 Guyancourt) at a temperature of 40° C. and flow rate 0.25 ml/min. The peptides were eluted in conventional manner against an increasing gradient of solvent B (Acetonitrile+0.100% formic acid) in solvent A (Water+0.106% formic acid) for a time of 40 min to 2 hours in relation to desired resolution. • detection was made using a specific detector of MS/MS type, for example of ion trap type such as the Esquire 3000+(Bruker, Daltonique, rue de l'Industrie 67166 Wissembourg Cedex) adjusted either for global analysis of the peptide content (MS-MS mode) or for precise, specific quantification of a peptide from its characteristic fragments. For example the αS1[91-100] peptide was isolated from its mass (double charged ion of mass 634.5 Da) and quantified from the intensity of its characteristic daughter ions after fragmenting (ions with m/z 991.5 Da, 771.5 Da and 658.3 Da). In even more precise manner, an internal standard consisting of the same synthetic peptide deuterated twice (characteristic fragment of 993.5 Da) allowed any matrix-related interferences to be overcome and taken into account.\n(§4) To verify that this phenomenon is not particular to the two ferments used in paragraph 1.1) above, the main industrial ferments and different pure strains entering into the composition of these ferments, were tested on the same test basis: milk reconstituted from milk powder, to which Lactium® was added at a dose of 1.5 g/L, was fermented under standard conditions (optimal ferment temperature between 37 and 42° C., halting of fermentation at pH 4.7, two repeats). Analysis of the level of αS1[91-100] bioactive peptide was conducted on the sample before and after fermentation.\n(§5) In Table 3 above, which reflects consumption of the bioactive peptide aS1[91-100] by different ferments and industrial strains during fermentation of a milk mix containing 1.5 g/L Lactium®, the pure strains were identified by their numbers and respective date of depositing with the CNCM (Institut Pasteur, Paris France)."}, "[4]": {"tested_on": "Pure strains (S. thermophilus)", "test": "Fermentation of reconstituted milk with 1.5 g/L Lactium by pure strains", "type": "physicochemical", "conditions": "milk mix containing 1.5 g/L Lactium®, fermentation halted at pH 4.7", "protocol": "as §3, §4, §5"}, "[5]": {"test": "Storage of fermented then thermised product with peptide added after fermentation", "type": "physicochemical", "conditions": "thermised at 75° C. for 1 minute, stored at 10° C. until BBD (FIG. 5)", "protocol": "FIG. 5: Curves illustrating changes in the residual content of αS1[91-100] bioactive peptide added after fermentation, in a product fermented and then thermised at 75° C. for 1 minute and stored at 10° C. until the Best Before Date (BBD).\nThis solution effectively has numerous drawbacks: • thermisation of a fermented milk mass implies the use of stabilisers added before the heat treatment (pectins, starches, carrageenans, etc.) which complicates the method and substantially increases the cost of the formula; • the industrial production line is more complex and requires specific, higher investment; • the product no longer benefits from quality labels related to products containing living ferments (yoghurt type), and thereby loses the benefits associated with the consumption of lacetic ferments; • the organoleptic impact (generally negative) is significant."}, "fermented mass": {"tested_on": "fermented mass", "test": "Storage of fermented mass with Lactium encapsulated in palm oil emulsion", "type": "physicochemical", "protocol": "FIG. 6: Illustration of the change in content of encapsulated bioactive ingredient over time (storage at 4° C.).\nFIG. 7: Compared peptide profiles (LC-MS/MS chromatograms) of a milk mix containing 1.5 g/L Lactium® added in the form of an emulsion in palm oil according to the present invention, immediately after addition to the fermented mass (1) and after 14 days' storage at 10° C. (2).\nThe oil was melted at 50° C. to obtain total absence of crystals, and the Lactium® containing the bioactive food ingredient αS1(91-100] was gradually added under magnetic stirring (maintained at 50° C.).\nA type of syrup was prepared from water and the premix of palm oil/bioactive food ingredient. The bioactive food ingredient was gradually added to the water (30° C.) under Ultraturax stirring (22000 rpm), the palm content of the solution being arbitrarily fixed at […].\nThe emulsion obtained was easily pumpable at 30° C.-35° C., but became progressively firmer as soon as the temperature fell to below 25° C.-30° C. (progressive recrystallisation of the palm oil). The use of a food emulsifier (e.g. Lactem® supplied by Danisco) to the proportion of 0.5%/fat led to obtaining a population of fatty globules that was less heterogeneous."}, "platelet aggregation": {"tested_on": "platelet aggregation", "conditions": "In vitro; Jollès 1986; cited from earlier work"}, "[6]": {"conditions": "In vivo animal; Migliore-Samour 1988; cited from earlier work"}, "[7]": {"conditions": "Hypertensive rats, after ingestion; Nakamura 1995; cited from earlier work"}, "[8]": {"conditions": "Normal rats; Nakamura 1995; cited from earlier work"}, "[9]": {"conditions": "Human hypertension (36 patients), after 8 weeks' ingestion of 95 mL/d; Hata 1996; cited from earlier work"}, "[10]": {"conditions": "Dog, 10 g/300 mL water by stomach tube; cancelled by naloxone; Defilippi 1986; cited from earlier work"}}, "note": "“Also recorded” adds a separate entry of the source. Read-outs that look alike come from different tables or passages of the source. Peptide text beside a SMILES is read from it.", "data": [{"compound": "Lactoferricin", "values": [{"measurement": "growth of pathogenic strains", "setting": "pathogenic strains; Tomita 1994-Zucht 1995", "result": "Inhibited growth of pathogenic strains"}]}, {"compound": "αS1[91-100]: bioactive peptide with relaxing properties contained in the hydrolysate of milk proteins marketed by Ingredia as Lactium® (YLGYLEQLLR; UniProt P02662 106-115, looked up, fragment)", "values": [{"measurement": "bioactive peptide consumed after fermentation", "setting": "[1]", "result": "more than 95%"}, {"measurement": "bioactive peptide consumed after fermentation", "setting": "[2]; 1.5 g/L Lactium® added before fermentation, up to pH 4.70", "result": "more than 95%"}, {"measurement": "% αS1[91-100] peptide remaining after fermentation", "setting": "[3]; strain 1-1519 (30 Dec. 1994)", "result": 0.1, "unit": "%"}, {"measurement": "% αS1[91-100] peptide remaining after fermentation", "setting": "[3]; strain 1-1632 (24 Oct. 1995)", "result": 0.2, "unit": "%"}, {"measurement": "% αS1[91-100] peptide remaining after fermentation", "setting": "[3]; strain 1-1968 (14 Jan. 1998)", "result": 1.6, "unit": "%"}, {"measurement": "% αS1[91-100] peptide remaining after fermentation", "setting": "[3]; strain 1-2809 (19 Feb. 2002)", "result": 0.4, "unit": "%"}, {"measurement": "% αS1[91-100] peptide remaining after fermentation", "setting": "[4]; strain 1-1477 (22 Sep. 1994)", "result": 0.3, "unit": "%"}, {"measurement": "% αS1[91-100] peptide remaining after fermentation", "setting": "[4]; strain 1-1630 (24 Oct. 1995)", "result": 0.3, "unit": "%"}, {"measurement": "stability of the peptide in heat-treated fermented product", "setting": "[5]", "result": "possible to ensure the stability; also recorded: possible to preserve"}, {"measurement": "content of encapsulated bioactive ingredient over time", "setting": "fermented mass; encapsulated in palm oil emulsion, added to fermented white mass, storage at 4° C. (FIG. 6)", "result": "stability"}]}, {"compound": "Peptide 106-116 of bovine κ-casein: fragment 106-116 of bovine κ-casein (MAIPPKKNQDK; UniProt P02668 127-137, looked up, fragment)", "values": [{"measurement": "platelet aggregation", "setting": "platelet aggregation", "result": "Inhibits"}]}, {"compound": "Casein 191-193: fragment 191-193 of bovine β-casein (LLY; UniProt P02666 206-208, looked up, fragment)", "values": [{"measurement": "in vivo protection", "setting": "[6]", "result": "No in vivo protection"}]}, {"compound": "Casein 63-68: fragment 63-68 of bovine β-casein (PGPIPN; UniProt P02666 78-83, looked up, fragment)", "values": [{"measurement": "in vivo protection", "setting": "[6]", "result": "No in vivo protection"}]}, {"compound": "Val-Pro-Pro [Val-Pro-Pro (VPP)]", "values": [{"measurement": "blood pressure", "setting": "[7]", "result": "ingestion, reduced blood"}, {"measurement": "blood pressure", "setting": "[8]", "result": "Normal rats: no effect"}, {"measurement": "blood pressure", "setting": "[9]", "result": "reduced blood pressure"}]}, {"compound": "CC[C@H](C)[C@H](NC(=O)[C@@H]1CCCN1C(=O)[C@H](Cc1cnc[nH]1)NC(=O)[C@H](CCCCN)NC(=O)[C@@H]1CCCN1C(=O)[C@@H](N)CCCNC(=N)N)C(=O)N[C@@H](CCCCN)C(=O)N[C@@H](Cc1cnc[nH]1)C(=O)N[C@@H](CCC(N)=O)C(=O)NCC(=O)N[C@@H](CC(C)C)C(=O)N1CCC[C@H]1C(=O)N[C@@H](CCC(N)=O)C(=O)N[C@@H](CCC(=O)O)C(=O)N[C@H](C(=O)N[C@@H](CC(C)C)C(=O)N[C@@H](CC(N)=O)C(=O)N[C@@H](CCC(=O)O)C(=O)N[C@@H](CC(N)=O)C(=O)N[C@@H](CC(C)C)C(=O)N[C@@H](CC(C)C)C(=O)N[C@@H](CCCNC(=N)N)C(=O)N[C@@H](Cc1ccccc1)C(=O)O)C(C)C", "note": "[isracidin] (H-RPKHPIKHQGLPQEVLNENLLRF-OH)", "values": [{"measurement": "growth of pathogenic strains", "setting": "pathogenic strains; Lahov 1996", "result": "Inhibited growth of pathogenic"}]}, {"compound": "αS1[23-34]: bioactive C12 peptide, present in the C12 ingredient by DMV International and in Lactium® (FFVAPFPEVFGK; UniProt P02662 38-49, looked up, fragment)", "values": [{"measurement": "peptides after fermentation (LC-MS/MS peptide profile)", "setting": "[2]; milk mix containing 1.5 g/L DMV C12® hydrolysate, fermentation up to pH 4.7 (FIG. 3)", "result": "disappeared"}, {"measurement": "protection of peptide (LC-MS/MS peptide profile)", "setting": "fermented mass; 1.5 g/L Lactium® as emulsion in palm oil, after 14 days' storage at 10° C. (FIG. 7)", "result": "well protected"}]}, {"compound": "Casein", "values": [{"measurement": "small intestine motility", "setting": "[10]", "result": "inhibition of small intestine"}]}, {"compound": "Il-Pro-Pro [Il-Pro-Pro (IPP)]", "values": [{"measurement": "blood pressure", "setting": "[7]", "result": "ingestion, reduced blood"}, {"measurement": "blood pressure", "setting": "[8]", "result": "Normal rats: no effect"}, {"measurement": "blood pressure", "setting": "[9]", "result": "reduced blood pressure"}]}]}
